In this experiment the target is T1, Human TREM2 (Homo sapiens, UniProt Q9NZC2).
T1 construct: expressed in transfected cells
In words: Human TREM2 activity: cellular phosphorylation of Syk (AlphaLISA SureFire Ultra p-SYK) in HEK293/DAP12+TREM2 stable cell line. The experiment is classed as cell-based. Put shortly: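 The read-out was p-Syk (Tyr525/526), measured by AlphaLISA in lysates of a stable HEK293/DAP12+TREM2 clone. Cells (10,000/well, plated the day before) received compound for 30 min at 37 °C. Dosing used 8 points in quadruplicate, top 100 μM with 1:6 dilution, 0.5% final DMSO.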
Background: Alpha assays give light when donor and acceptor beads are brought close together.

Setting [1] is: HEK293, maximal response relative to reference agonist example 1B (remaining examples), read-out: Emax.
Where [2] appears, read: phospho-Syk AlphaLISA signal, HEK293/DAP12+TREM2 cells, concentration giving 50% of maximal response, read-out: EC50.
Where [3] appears, read: maximal response relative to reference agonist example 1B (remaining examples).

SMILES strings stand for the structures. Where two headings read alike, the source gives them in different places.

From patent publication US20260200926A1, “TREM2 MODULATORS” (Muna Therapeutics ApS, priority 2022, published 2026) come the findings set out here.

T1 sequence (Q9NZC2 19-230): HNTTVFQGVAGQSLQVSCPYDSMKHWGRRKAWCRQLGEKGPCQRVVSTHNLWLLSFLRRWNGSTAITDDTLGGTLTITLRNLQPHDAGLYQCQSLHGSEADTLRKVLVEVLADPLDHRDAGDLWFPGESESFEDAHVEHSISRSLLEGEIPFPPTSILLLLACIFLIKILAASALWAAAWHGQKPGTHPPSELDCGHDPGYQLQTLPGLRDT
T1 sequence (O43914 22-113 partner): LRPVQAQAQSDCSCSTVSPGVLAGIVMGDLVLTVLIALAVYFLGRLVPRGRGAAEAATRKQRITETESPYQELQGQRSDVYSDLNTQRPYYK

For orientation: Emax means the maximal effect, on the per cent scale that the assay sets. Broadly, the EC50 is the concentration at which the effect is half-maximal. As to `Cc1cc([C@@H]2CN(c3cc4c(=O)n(C)c(C)nc4c(-c4ccc(F)cc4F)n3)CC(C)(C)O2)ccn1` (single isomer, unassigned) [Example 159A], under setting [1], the Emax is 75 to 110%. In addition, the concentration for a half-maximal effect (EC50) under setting [2] lay in the range of 1 to 10 nM.

In the case of `Cc1nc2c(-c3ccc(F)cc3F)nc(N3C[C@H](c4cnn(C)c4)OC(F)(F)C3)cc2c(=O)n1C` (single isomer, unassigned) [Example 166B], the maximal response (Emax) under setting [1] was under 75%. Moreover, the EC50 under setting [2] lay within 10 to 100 nM.

`Cc1cc([C@H]2C[C@H](c3nc(-c4ccc(Cl)cc4F)c4nc(C)n(C)c(=O)c4n3)CCO2)ccn1` (single isomer, unassigned) [Example 95]: the Emax under setting [1] is under 75%. Further, the 50% effective concentration (EC50) under setting [2] is 100 to 1000 nM.

For `Cc1nc2c(-c3ccc(Cl)cc3F)nc(N3CCOC(c4ccn(C)n4)C3)nc2c(=O)n1C` (centres unmarked) [Example 36, 8-(4-chloro-2-fluorophenyl)-2,3-dimethyl-6-(2-(1-methyl-1H-pyrazol-3-yl)morpholino)pyrimido[5,4-d]pyrimidin-4 (3H)-one], the concentration for a half-maximal effect (EC50) is 100 to 1000 nM. Under setting [3], the maximal response (Emax) entry is on record as “++ (75-110%)”.

For `Cn1c(C(F)(F)F)nc2c(-c3ccc(F)cc3F)nc(C3CCOC(c4cnn(C5CC5)c4)C3)c(F)c2c1=O` (centres unmarked) [Example 167, 6-(2-(1-cyclopropyl-1H-pyrazol-4-yl)tetrahydro-2H-pyran-4-yl)-8-(2,4-difluorophenyl)-5-fluoro-3-methyl-2-(trifluoromethyl) pyrido[3,4-d]pyrimidin-4 (3H)-one], the Emax under setting [1] is under 75%. Besides, the EC50 under setting [2] fell in the range of 100 to 1000 nM.

For `Cc1ncc(C2CN(c3nc(-c4ccc(Cl)cc4F)c4nc(C)n(C)c(=O)c4n3)CCO2)cn1` (centres unmarked) [Example 35, 8-(4-chloro-2-fluorophenyl)-2,3-dimethyl-6-(2-(2-methylpyrimidin-5-yl)morpholino)pyrimido[5,4-d]pyrimidin-4 (3H)-one], the concentration giving a half-maximal response (EC50) was 10 to 100 nM. Moreover, the Emax result under setting [3] was “+ (<75%)”.

For the compound `Cc1nc2c(-c3ccc(C(F)(F)F)nc3)nc([C@H]3CCO[C@@H](c4cnn(C5CC5)c4)C3)nc2c(=O)n1C` (single isomer, unassigned) [Example 98B], under setting [1], the maximal effect (Emax) was under 75%. Moreover, the EC50 under setting [2] is over 1000 nM.

`Cc1nc2c(-c3cc(F)c(F)cc3F)nc(N3CCO[C@H](c4cnn(C5CC5)c4)C3)cc2c(=O)n1C` (single isomer, unassigned) [Example 133A]: under setting [1], the maximal response (Emax) is 75 to 110%. For the same compound, under setting [2], the EC50 is 10 to 100 nM.

Consider `Cc1nc2c(-c3ccc(Cl)cc3F)nc([C@@H]3C[C@@H]3c3cnn(C)c3)cc2c(=O)n1C` (single isomer, unassigned) [Example 148A], for which, under setting [1], the Emax is under 75%. In addition, the half-maximal effective concentration (EC50) under setting [2] was over 1000 nM.

As to `Cc1cc([C@H]2CN(c3cc4c(=O)n(C)c(C)nc4c(-c4ccc(F)cc4F)n3)CC(F)(F)O2)ccn1` (single isomer, unassigned) [Example 171B], the maximal response (Emax) under setting [1] was under 75%. Further, the EC50 under setting [2] lay in the range of 100 to 1000 nM.

Take `Cc1nc2c(-c3ccc(Cl)cc3F)nc(N3CCN(CCF)C(c4cnn(C)c4)C3)nc2c(=O)n1C` (centres unmarked) [Example 31, 8-(4-chloro-2-fluorophenyl)-6-(4-(2-fluoroethyl)-3-(1-methyl-1H-pyrazol-4-yl)piperazin-1-yl)-2,3-dimethylpyrimido[5,4-d]pyrimidin-4(3H)-one]: the Emax under setting [1] was 75 to 110%. Moreover, under setting [2], the concentration for a half-maximal effect (EC50) lay in the range of 10 to 100 nM.

With `Cc1cc([C@H]2CN(c3cc4c(=O)n(C)c(C)nc4c(-c4ccc(C(F)(F)F)nc4)n3)CC(C)(C)O2)ccn1` (single isomer, unassigned) [Example 161B], under setting [1], the Emax is 75 to 110%. In addition, the EC50 under setting [2] lay in the range of 1 to 10 nM.

For `Cn1c(C(F)(F)F)nc2c(-c3cc(F)c(F)cc3F)nc([C@H]3CCO[C@@H](c4cnn(C5CC5)c4)C3)nc2c1=O` (single isomer, unassigned) [Example 186B], the Emax under setting [1] is under 75%. The EC50 under setting [2] lay within 100 to 1000 nM.

For the compound `Cc1cc([C@H]2C[C@@H](c3cc4c(=O)n(C)c(C)nc4c(-c4ccc(C(F)(F)F)cc4F)n3)CCO2)ccn1` (single isomer, unassigned) [Example 168B], the Emax under setting [1] lay in the range of 75 to 110%. Also, the concentration for a half-maximal effect (EC50) under setting [2] was 1 to 10 nM.

Take `Cc1nc2c(-c3ccc(F)c(F)c3)nc(N3CCOC(c4cnn(C)c4)C3)nc2c(=O)n1C` (centres unmarked) [Example 9, 8-(3,4-difluorophenyl)-2,3-dimethyl-6-(2-(1-methyl-1H-pyrazol-4-yl)morpholino)pyrimido[5,4-d]pyrimidin-4(3H)-one]: the Emax under setting [1] was under 75%. Moreover, the EC50 under setting [2] fell in the range of 100 to 1000 nM.

With `Cc1nc2c(-c3cc(F)c(F)cc3F)nc(N3C[C@H](c4cnn(C)c4)OC4(CCC4)C3)cc2c(=O)n1C` (single isomer, unassigned) [Example 152B], under setting [1], the maximum response (Emax) was under 75%. For the same compound, under setting [2], the half-maximal effective concentration (EC50) was over 1000 nM.

For `Cc1nc2c(-c3ccc(C(F)(F)F)cc3F)nc([C@H]3CCO[C@@H](c4cnn(C)c4)C3)nc2c(=O)n1C` (single isomer, unassigned) [Example 66], under setting [1], the Emax is 75 to 110%. Under setting [2], the EC50 was over 1000 nM.

In the case of `Cc1nc2c(-c3ccc(F)cc3C#N)nc(N3C[C@@H](c4cnn(C5CC5)c4)O[C@@H](C)C3)cc2c(=O)n1C` (single isomer, unassigned) [Example 201A], the Emax under setting [1] was under 75%. For the same compound, the EC50 under setting [2] is over 1000 nM.

Regarding `Cc1nc2c(-c3ccc(Cl)cc3F)nc([C@@]34CCO[C@@H](c5cnn(C6CC6)c5)[C@@H]3C4)nc2c(=O)n1C` (single isomer, unassigned) [Example 116B], the Emax under setting [1] was under 75%. Further, the EC50 under setting [2] was 100 to 1000 nM.

With `Cc1nc2c(-c3ccc(C(F)(F)F)cc3F)nc(N3C[C@@H](c4cnn(C)c4)OC4(CC4)C3)cc2c(=O)n1C` (single isomer, unassigned) [Example 145A], under setting [1], the maximal effect (Emax) is 75 to 110%. Further, the EC50 under setting [2] was in the range of 1 to 10 nM.

Consider `Cc1nc2c(-c3ccc(Cl)cc3F)nc(N3CCOC(c4cnn(C)c4)C3)nc2c(=O)n1C` (centres unmarked) [Example 1, 8-(4-chloro-2-fluorophenyl)-2,3-dimethyl-6-(2-(1-methyl-1H-pyrazol-4-yl)morpholino)pyrimido[5,4-d]pyrimidin-4 (3H)-one], for which the Emax (HEK293, maximal response relative to reference agonist human TREM2 MAB1828 (examples 1, 1A and 1B), read-out: Emax) was 75 to 110%. Moreover, under setting [2], the concentration giving a half-maximal response (EC50) was 10 to 100 nM.

With `Cc1nc2c(-c3ccc(Cl)cc3F)nc(N3CCO[C@@H](c4cnn(C)c4)C3)nc2c(=O)[nH]1` (single isomer, unassigned) [Example 203B], the maximum response (Emax) under setting [1] was under 75%. The EC50 under setting [2] was in the range of 100 to 1000 nM.

With `Cc1nc2c(-c3ccc(Cl)cc3F)nc(N3CC(c4cnn(C)c4)OC4(CCC4)C3)nc2c(=O)n1C` (centres unmarked) [Example 90, 8-(4-chloro-2-fluorophenyl)-2,3-dimethyl-6-(6-(1-methyl-1H-pyrazol-4-yl)-5-oxa-8-azaspiro(3,5)nonan-8-yl)pyrimido(5,4-d)pyrimidin-4 (3H)-one], the Emax under setting [1] was in the range of 75 to 110%. The EC50 under setting [2] is 1 to 10 nM.

With `Cc1nc2c(-c3ccc(Cl)cc3F)nc(N3CCOC(C)(C)C3)nc2c(=O)n1C` [Example 57, 8-(4-chloro-2-fluorophenyl)-6-(2,2-dimethylmorpholino)-2,3-dimethylpyrimido[5,4-d]pyrimidin-4(3H)-one], the Emax under setting [1] is under 75%. Under setting [2], the EC50 is over 1000 nM.

Regarding `Cc1cc([C@H]2CN(c3cc4c(=O)n(C)c(C)nc4c(-c4cc(F)c(F)cc4F)n3)CC(C)(C)O2)ccn1` (single isomer, unassigned) [Example 160B], under setting [1], the Emax was under 75%. Under setting [2], the 50% effective concentration (EC50) was 100 to 1000 nM.

Consider `Cc1nc2c(-c3ccc(Cl)cc3F)nc(N3CCO[C@H](c4cnn(C)c4)C3)cc2c(=O)n1C` (single isomer, unassigned) [Example 125B], for which, under setting [1], the maximum response (Emax) was under 75%. Moreover, the concentration for a half-maximal effect (EC50) under setting [2] was in the range of 10 to 100 nM.

As to `Cc1nc2c(-c3ccc(Cl)cc3F)cc(N3CCOC(c4cnn(C)c4)C3)nc2c(=O)n1C` (centres unmarked) [Example 104, 8-(4-chloro-2-fluorophenyl)-2,3-dimethyl-6-(2-(1-methyl-1H-pyrazol-4-yl)morpholino)pyrido[3,2-d]pyrimidin-4 (3H)-one], under setting [1], the Emax lay within 75 to 110%. The EC50 under setting [2] lay within 100 to 1000 nM.

Take `Cc1nc2c(-c3ccc(Cl)cc3F)nc([C@@H]3C[C@H](c4cnn(C)c4)OC(C)(C)C3)nc2c(=O)n1C` (single isomer, unassigned) [Example 111B]: the Emax under setting [1] was under 75%. For the same compound, the EC50 under setting [2] was in the range of 100 to 1000 nM.

Take `Cc1cc(C2CN(c3nc(-c4ccc(Cl)cc4F)c4nc(C)n(C)c(=O)c4n3)CCO2)ccn1` (centres unmarked) [Example 3, 8-(4-chloro-2-fluorophenyl)-2,3-dimethyl-6-(2-(2-methylpyridin-4-yl)morpholino)pyrimido[5,4-d]pyrimidin-4 (3H)-one]: under setting [1], the Emax lay in the range of 75 to 110%. In addition, under setting [2], the half-maximal effective concentration (EC50) is 1 to 10 nM.

In the case of `Cc1cc([C@H]2CN(c3nc(-c4ccc(F)cc4F)c4nc(C)n(C)c(=O)c4n3)CCO2)ccn1` (single isomer, unassigned) [Example 122B], the Emax under setting [1] was under 75%. Besides, the EC50 under setting [2] is 100 to 1000 nM.

Regarding `Cc1nc2c(-c3ccc(C(F)(F)F)cc3F)nc(N3C[C@H](c4cnn(C)c4)OC(C)(C)C3)cc2c(=O)n1C` (single isomer, unassigned) [Example 134B], the Emax under setting [1] is under 75%. Moreover, the EC50 under setting [2] was in the range of 100 to 1000 nM.

Consider `Cc1nc2c(-c3ccc(Cl)cc3F)nc(N3CCO[C@H](c4cnn(C5CC5)c4)C3)nc2c(=O)n1C` (single isomer, unassigned) [Example 26A], for which, under setting [1], the Emax is 75 to 110%. For the same compound, under setting [2], the concentration for a half-maximal effect (EC50) lay within 10 to 100 nM.

For `Cc1cc([C@H]2CN(c3cc4c(=O)n(C)c(C(F)(F)F)nc4c(-c4ccc(F)cc4F)n3)C[C@@H](C)O2)ccn1` (single isomer, unassigned) [Example 189B], the Emax under setting [1] was 75 to 110%. For the same compound, the EC50 under setting [2] lay within 100 to 1000 nM.

With `Cc1cc([C@H]2CN(c3nc(-c4ccc(C(F)(F)F)nc4)c4nc(C)n(C)c(=O)c4n3)CC(C)(C)O2)ccn1` (single isomer, unassigned) [Example 164B], the maximum response (Emax) under setting [1] is under 75%. Also, under setting [2], the EC50 fell in the range of 1 to 10 nM.
